In US20260191835A1, “COMBINATIONS COMPRISING A MENIN-MLL INHIBITOR AND AT LEAST ONE OTHER THERAPEUTIC AGENT” (JANSSEN PHARMACEUTICA NV, priority 2022, published 2026):

System: MV4-11 cells
Assay: In vitro proliferation (Cell Titer Glo, 6 days) of Compound 51 in combination with gilteritinib, midostaurin or decitabine, MV4-11
Assay type: cell-based
Parameters: key to Synergy/antagonism call (maxR test), MV4-11 Cell Proliferation: synergy is indicated by “**”; antagonism is indicated by “*”; no asterisk: absence of any asterisk indicates an additive effect
Method: 3) In Vitro Proliferation—Menin-MLL Inhibitor in Combination with FLT3 Inhibitor (Gilteritinib or Midostaurin), DNA Intercalating Agent (Idarubicin) or Hypomethylating Agent (Decitabine)
The effect of Compound 51 in combination with gilteritinib, midostaurin, idarubicin or decitabine was determined in proliferation assays.
AML cell lines MOLM-13, OCI-AML3 and MV4-11 were purchased from DSMZ. MOLM-13 were grown in RPMI medium supplemented with 10% Fetal Bovine Serum (FBS) and 1% penicillin/streptomycin. MV4-11 cells were grown in IMDM medium supplemented with 10% FBS and 1% penicillin/streptomycin. OCI-AML3 cells were cultured in 80-90% alpha-MEM (with or without ribo- and deoxyribonucleosides)+10-20% FBS. All cell lines were cultured at 37° C. in 5% CO2 atmosphere.
AML cell lines (10-20×10^3 cells/well) were seeded in 96-well plates and grown for 6 days in serum (10%)-containing medium in the presence or absence of inhibitors at the indicated concentrations. Proliferation was analyzed by means of a Cell Titer Glo assay using the […] (Promega, Madison, WI, USA), according to the manufacturer's instructions. Data are mean with standard deviation from two to four independent experiments in technical triplicates.
R-based Biochemically Intuitive Generalized Loewe (BIGL) model implemented with a highest single agent (HSA) null model. Specifically, the BIGL methodology was applied to calculate drug-drug interactions (Van der Borght, K., Tourny, A., Bagdziunas, R. et al. BIGL: Biochemically Intuitive Generalized Loewe null model for prediction of the expected combined effect compatible with partial agonism and antagonism. Sci Rep 7, 17935 (2017); Thas, O., Tourny, A., Verbist, B., Hawinkel, S., Nazarov, M., Mutambanengwe, K., & Bijnens, L. Statistical detection of synergy: New methods and a comparative study. Pharmaceutical Statistics (2021)).
Synergy matrix results of the BIGL analysis of the cell line data with HSA as mean model calculated on the basis of the cellular metabolic activity using Cell Titer-Glo assay. Bootstrap confidence intervals are indicated. Effect sizes and their confidence intervals are shown. […] No significant average effect if zero is included in the interval.

[1] = Compound 51 0.01 μm + Decitabine 0.0015 μM
[2] = Compound 51 0.01 μm + Decitabine 0.035 μM
[3] = Compound 51 0.01 μm + Decitabine 0.15 μM
[4] = Compound 51 0.01 μm + Gilteritinib 0.0005 μM
[5] = Compound 51 0.05 μm + Decitabine 0.15 μM
[6] = Compound 51 0.05 μm + Decitabine 1.5 μM
[7] = Compound 51 0.05 μm + Gilteritinib 0.0005 μM

CC(=O)N1CCC(CN2CC[C@@H](Cc3cn(-c4ccc(F)cc4C(=O)N(C)C(C)C)c4cncc(C)c34)C2)CC1 [Compound 51]
Effect size (BIGL, HSA null model), MV4-11 Cell Proliferation (Compound 51 0.0001 μm + Midostaurin 0.0012 μM): −0.03
Effect size (BIGL, HSA null model), MV4-11 Cell Proliferation (Compound 51 0.0001 μm + Midostaurin 0.006 μM): 0.13
Effect size (BIGL, HSA null model), MV4-11 Cell Proliferation (Compound 51 0.0001 μm + Midostaurin 0.025 μM): 0.02
Effect size (BIGL, HSA null model), MV4-11 Cell Proliferation (Compound 51 0.0001 μm + Midostaurin 0.05 μM): −0.05
Effect size (BIGL, HSA null model), MV4-11 Cell Proliferation (Compound 51 0.0001 μm + Midostaurin 0.1 μM): −0.02
Effect size (BIGL, HSA null model), MV4-11 Cell Proliferation (Compound 51 0.0001 μm + Midostaurin 0.5 μM): 0.03
Effect size (BIGL, HSA null model), MV4-11 Cell Proliferation (Compound 51 0.001 μm + Decitabine 0.0015 μM): −0.01
Effect size (BIGL, HSA null model), MV4-11 Cell Proliferation (Compound 51 0.001 μm + Decitabine 0.035 μM): −0.03
Effect size (BIGL, HSA null model), MV4-11 Cell Proliferation (Compound 51 0.001 μm + Decitabine 0.15 μM): 0
Effect size (BIGL, HSA null model), MV4-11 Cell Proliferation (Compound 51 0.001 μm + Decitabine 1.5 μM): −0.05
Effect size (BIGL, HSA null model), MV4-11 Cell Proliferation (Compound 51 0.001 μm + Decitabine 3 μM): −0.04
Effect size (BIGL, HSA null model), MV4-11 Cell Proliferation (Compound 51 0.001 μm + Gilteritinib 0.0005 μM): −0.03
Effect size (BIGL, HSA null model), MV4-11 Cell Proliferation (Compound 51 0.001 μm + Gilteritinib 0.005 μM): −0.01
Effect size (BIGL, HSA null model), MV4-11 Cell Proliferation (Compound 51 0.001 μm + Gilteritinib 0.01 μM): −0.03
Effect size (BIGL, HSA null model), MV4-11 Cell Proliferation (Compound 51 0.001 μm + Gilteritinib 0.05 μM): −0.01
Effect size (BIGL, HSA null model), MV4-11 Cell Proliferation (Compound 51 0.001 μm + Gilteritinib 0.3 μM): −0.01
Effect size (BIGL, HSA null model), MV4-11 Cell Proliferation (Compound 51 0.001 μm + Gilteritinib 1 μM): −0.01
Effect size (BIGL, HSA null model), MV4-11 Cell Proliferation (Compound 51 0.001 μm + Midostaurin 0.0012 μM): −0.02
Effect size (BIGL, HSA null model), MV4-11 Cell Proliferation (Compound 51 0.001 μm + Midostaurin 0.006 μM): −0.01
Effect size (BIGL, HSA null model), MV4-11 Cell Proliferation (Compound 51 0.001 μm + Midostaurin 0.025 μM): 0.05
Effect size (BIGL, HSA null model), MV4-11 Cell Proliferation (Compound 51 0.001 μm + Midostaurin 0.05 μM): 0.07
Effect size (BIGL, HSA null model), MV4-11 Cell Proliferation (Compound 51 0.001 μm + Midostaurin 0.1 μM): −0.03
Effect size (BIGL, HSA null model), MV4-11 Cell Proliferation (Compound 51 0.001 μm + Midostaurin 0.5 μM): 0.03
Effect size (BIGL, HSA null model), MV4-11 Cell Proliferation [1]: −0.1
Synergy/antagonism call (maxR test), MV4-11 Cell Proliferation [1]: **
Effect size (BIGL, HSA null model), MV4-11 Cell Proliferation [2]: −0.11
Synergy/antagonism call (maxR test), MV4-11 Cell Proliferation [2]: **
Effect size (BIGL, HSA null model), MV4-11 Cell Proliferation [3]: −0.23
Synergy/antagonism call (maxR test), MV4-11 Cell Proliferation [3]: **
Effect size (BIGL, HSA null model), MV4-11 Cell Proliferation (Compound 51 0.01 μm + Decitabine 1.5 μM): 0.01
Effect size (BIGL, HSA null model), MV4-11 Cell Proliferation (Compound 51 0.01 μm + Decitabine 3 μM): −0.05
Effect size (BIGL, HSA null model), MV4-11 Cell Proliferation [4]: −0.36
Synergy/antagonism call (maxR test), MV4-11 Cell Proliferation [4]: **
Effect size (BIGL, HSA null model), MV4-11 Cell Proliferation (Compound 51 0.01 μm + Gilteritinib 0.005 μM): −0.02
Effect size (BIGL, HSA null model), MV4-11 Cell Proliferation (Compound 51 0.01 μm + Gilteritinib 0.01 μM): −0.02
Effect size (BIGL, HSA null model), MV4-11 Cell Proliferation (Compound 51 0.01 μm + Gilteritinib 0.05 μM): −0.02
Effect size (BIGL, HSA null model), MV4-11 Cell Proliferation (Compound 51 0.01 μm + Gilteritinib 0.3 μM): −0.02
Effect size (BIGL, HSA null model), MV4-11 Cell Proliferation (Compound 51 0.01 μm + Gilteritinib 1 μM): −0.02
Effect size (BIGL, HSA null model), MV4-11 Cell Proliferation (Compound 51 0.01 μm + Midostaurin 0.0012 μM): −0.06
Effect size (BIGL, HSA null model), MV4-11 Cell Proliferation (Compound 51 0.01 μm + Midostaurin 0.006 μM): −0.13
Effect size (BIGL, HSA null model), MV4-11 Cell Proliferation (Compound 51 0.01 μm + Midostaurin 0.025 μM): −0.14
Effect size (BIGL, HSA null model), MV4-11 Cell Proliferation (Compound 51 0.01 μm + Midostaurin 0.05 μM): −0.11
Effect size (BIGL, HSA null model), MV4-11 Cell Proliferation (Compound 51 0.01 μm + Midostaurin 0.1 μM): −0.04
Effect size (BIGL, HSA null model), MV4-11 Cell Proliferation (Compound 51 0.01 μm + Midostaurin 0.5 μM): 0.03
Effect size (BIGL, HSA null model), MV4-11 Cell Proliferation (Compound 51 0.05 μm + Decitabine 0.0015 μM): 0.02
Effect size (BIGL, HSA null model), MV4-11 Cell Proliferation (Compound 51 0.05 μm + Decitabine 0.035 μM): −0.07
Effect size (BIGL, HSA null model), MV4-11 Cell Proliferation [5]: −0.23
Synergy/antagonism call (maxR test), MV4-11 Cell Proliferation [5]: **
Effect size (BIGL, HSA null model), MV4-11 Cell Proliferation [6]: −0.11
Synergy/antagonism call (maxR test), MV4-11 Cell Proliferation [6]: **
Effect size (BIGL, HSA null model), MV4-11 Cell Proliferation (Compound 51 0.05 μm + Decitabine 3 μM): −0.06
Effect size (BIGL, HSA null model), MV4-11 Cell Proliferation [7]: −0.18
Synergy/antagonism call (maxR test), MV4-11 Cell Proliferation [7]: **
Effect size (BIGL, HSA null model), MV4-11 Cell Proliferation (Compound 51 0.05 μm + Gilteritinib 0.005 μM): −0.03
Effect size (BIGL, HSA null model), MV4-11 Cell Proliferation (Compound 51 0.05 μm + Gilteritinib 0.01 μM): −0.02
Effect size (BIGL, HSA null model), MV4-11 Cell Proliferation (Compound 51 0.05 μm + Gilteritinib 0.05 μM): −0.02
